Measurements from paper PMC11227190, “Interaction mechanism of oseltamivir phosphate with bovine serum albumin: multispectroscopic and molecular docking study” (BMC Chemistry, 2024).

Biological target: T1, bovine serum albumin (BSA) (Bos taurus, UniProt P02769)
T1 construct: gene ALB
Test: intrinsic fluorescence quenching (double-log Stern-Volmer, binding constant K at […] K); supported by UV absorption, CD and warfarin probe displacement
Details: read-out: K (10^4 L.mol^- 1) (converted)

T1 sequence (P02769 25-607): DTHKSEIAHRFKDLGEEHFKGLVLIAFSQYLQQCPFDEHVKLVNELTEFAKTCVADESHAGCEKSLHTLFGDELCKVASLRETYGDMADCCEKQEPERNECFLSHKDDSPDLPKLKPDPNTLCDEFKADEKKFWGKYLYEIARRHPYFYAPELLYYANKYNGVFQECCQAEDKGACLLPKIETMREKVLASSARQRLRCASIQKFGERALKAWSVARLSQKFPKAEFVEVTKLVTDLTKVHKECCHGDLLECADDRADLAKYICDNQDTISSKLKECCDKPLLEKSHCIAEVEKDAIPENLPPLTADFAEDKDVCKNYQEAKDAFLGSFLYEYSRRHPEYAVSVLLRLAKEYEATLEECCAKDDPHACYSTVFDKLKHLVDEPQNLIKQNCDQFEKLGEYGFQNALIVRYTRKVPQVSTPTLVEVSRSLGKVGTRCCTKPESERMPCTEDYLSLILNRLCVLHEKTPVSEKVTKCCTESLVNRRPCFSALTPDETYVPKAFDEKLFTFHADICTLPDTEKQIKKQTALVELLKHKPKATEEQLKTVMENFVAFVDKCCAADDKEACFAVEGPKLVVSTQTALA

- Kd: 47.8 µM
SMILES: CCOC(=O)C1=C[C@@H](OC(CC)CC)[C@H](NC(C)=O)[C@@H](N)C1 [OP, (3R,4R,5 S)-4-acetamido-5-amino-3-(1-ethylepoxy)-1-cyclohexene-1-carboxylic acid ethyl ester phosphate]
